Assay results: ChEMBL document CHEMBL3603800, “Novel methyl substituted 1-(5,6-dihydro-[1,2,4]triazolo[4,3-a]pyrazin-7(8H)-yl)methanones are P2X7 antagonists” (Bioorg Med Chem Lett, 2015)
Converted amounts (≈) assume the structure as drawn.

Columns and labels:
[1] = biological target: Voltage-gated inwardly rectifying potassium channel KCNH2 (Homo sapiens, UniProt Q12809); assay: Displacement of [3H]-astemizole from human ERG channel expressed in HEK293 cells by radioligand competition binding assay; type: cell-based
[2] = Apparent permeability from apical to basolateral side in human Caco2 cells; type: ADME, cell-based; settings: Caco-2
[3] = Apparent permeability from basolateral to apical side in human Caco2 cells; type: ADME, cell-based; settings: Caco-2
[4] = Protein binding in human plasma; type: ADME, cell-free; settings: read-out: PPB (converted)
[5] = Protein binding in rat plasma; type: ADME, cell-free; settings: read-out: PPB (converted)
[6] = Solubility in pH 7 solution; type: physicochemical
[7] = Protein binding in rat brain; type: ADME, tissue-based; settings: read-out: PB (converted)
Rattus norvegicus [8] = assay: Ex-vivo P2X7 receptor occupancy in Sprague-Dawley rat brain assessed as inhibition of [3H]A804598 binding at 30 mg/kg, po after 0.5 hrs by autoradiographic analysis; type: functional
[9] = Drug level in plasma of Sprague-Dawley rat at 30 mg/kg, po after 0.5 hrs; type: ADME, organism-based
[10] = Drug level in brain of Sprague-Dawley rat at 30 mg/kg, po after 0.5 hrs; type: ADME, organism-based; settings: read-out: Drug uptake
Rattus norvegicus [11] = assay: Ex-vivo P2X7 receptor occupancy in Sprague-Dawley rat brain assessed as inhibition of [3H]A804598 binding at 30 mg/kg, po after 2 hrs by autoradiographic analysis; type: functional
[12] = Drug level in plasma of Sprague-Dawley rat at 30 mg/kg, po after 2 hrs; type: ADME, organism-based
[13] = Drug level in brain of Sprague-Dawley rat at 30 mg/kg, po after 2 hrs; type: ADME, organism-based; settings: read-out: Drug uptake
Rattus norvegicus [14] = assay: Ex-vivo P2X7 receptor occupancy in Sprague-Dawley rat brain assessed as inhibition of [3H]A804598 binding at 10 mg/kg, po after 2 hrs by autoradiographic analysis; type: functional
[15] = Drug level in plasma of Sprague-Dawley rat at 10 mg/kg, after 0.5 hrs
[16] = Drug level in plasma of Sprague-Dawley rat at 10 mg/kg, sc after 2 hrs
[17] = Drug level in brain of Sprague-Dawley rat at 10 mg/kg, sc after 0.5 hrs; settings: read-out: Drug uptake
Rattus norvegicus [18] = assay: Ex-vivo P2X7 receptor occupancy in Sprague-Dawley rat brain assessed as inhibition of [3H]A804598 binding at 10 mg/kg, sc after 0.5 hrs by autoradiographic analysis

Sequence of Voltage-gated inwardly rectifying potassium channel KCNH2 (Q12809 whole entry): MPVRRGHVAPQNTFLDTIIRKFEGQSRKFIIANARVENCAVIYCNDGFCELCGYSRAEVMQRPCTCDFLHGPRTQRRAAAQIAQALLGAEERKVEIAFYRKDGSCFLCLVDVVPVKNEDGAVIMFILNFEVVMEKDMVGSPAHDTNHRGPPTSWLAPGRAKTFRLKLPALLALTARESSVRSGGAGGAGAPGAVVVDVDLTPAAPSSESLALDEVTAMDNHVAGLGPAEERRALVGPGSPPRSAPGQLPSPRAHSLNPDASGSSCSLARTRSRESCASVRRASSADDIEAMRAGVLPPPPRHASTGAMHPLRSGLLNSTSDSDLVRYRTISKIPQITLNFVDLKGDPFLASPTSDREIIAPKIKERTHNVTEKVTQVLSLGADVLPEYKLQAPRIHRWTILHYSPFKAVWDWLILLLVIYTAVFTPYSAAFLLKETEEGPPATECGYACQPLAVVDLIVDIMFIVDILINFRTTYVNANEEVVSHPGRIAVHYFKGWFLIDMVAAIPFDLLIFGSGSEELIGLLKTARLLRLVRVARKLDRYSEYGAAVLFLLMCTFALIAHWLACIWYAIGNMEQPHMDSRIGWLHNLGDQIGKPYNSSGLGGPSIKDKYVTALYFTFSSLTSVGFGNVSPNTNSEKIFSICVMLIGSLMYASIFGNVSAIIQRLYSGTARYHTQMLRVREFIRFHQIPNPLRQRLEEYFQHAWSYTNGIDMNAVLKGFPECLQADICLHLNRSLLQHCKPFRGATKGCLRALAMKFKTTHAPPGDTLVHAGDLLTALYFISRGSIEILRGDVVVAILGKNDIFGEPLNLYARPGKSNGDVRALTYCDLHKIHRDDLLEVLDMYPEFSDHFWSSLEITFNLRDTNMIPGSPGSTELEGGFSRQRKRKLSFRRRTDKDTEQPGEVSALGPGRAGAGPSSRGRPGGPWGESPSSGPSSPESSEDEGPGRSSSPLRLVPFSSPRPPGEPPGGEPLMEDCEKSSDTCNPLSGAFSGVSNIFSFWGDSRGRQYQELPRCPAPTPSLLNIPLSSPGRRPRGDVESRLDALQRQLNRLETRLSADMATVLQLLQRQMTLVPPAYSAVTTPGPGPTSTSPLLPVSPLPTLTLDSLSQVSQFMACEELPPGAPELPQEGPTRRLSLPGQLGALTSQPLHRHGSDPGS

Compound | IC50 [1] | Papp A→B [2] | Papp B→A [3] | fraction unbound [4] | fraction unbound [5] | solubility [6] | fraction unbound [7] | Occ (Rattus norvegicus [8]) | concentration at 0.5 h [9] | concentration at 0.5 h [10] | Occ (Rattus norvegicus [11]) | concentration at 2 h [12] | concentration at 2 h [13] | Occ (Rattus norvegicus [14]) | concentration at 0.5 h [15] | concentration at 2 h [16] | concentration at 0.5 h [17] | Occ (Rattus norvegicus [18])
C[C@@H]1c2nnc(-c3ccccn3)n2CCN1C(=O)c1cccc(Cl)c1Cl | > 10 µM | 73.4 ×10⁻⁶ cm/s | 52.1 ×10⁻⁶ cm/s | 0.175 | 0.069 | > 400 µM | 0.11 | 68% | 2520 ng/mL | 5510 ng/mL | 56% | 942 ng/mL | 2500 ng/mL | – | – | – | – | –
C[C@H]1Cn2c(nnc2-c2ccc(F)cc2)CN1C(=O)c1cccc(Cl)c1Cl | – | 43.3 ×10⁻⁶ cm/s | 41.6 ×10⁻⁶ cm/s | 0.115 | 0.078 | 158 µM (≈ 64 µg/mL) | 0.09 | 92% | 252 ng/mL | 1560 ng/mL | 5% | 27 ng/mL | 142 ng/mL | – | – | – | – | –
C[C@H]1Cn2c(nnc2-c2ccc(F)cc2)CN1C(=O)c1cccc(C(F)(F)F)c1Cl | – | 37.3 ×10⁻⁶ cm/s | 53.2 ×10⁻⁶ cm/s | 0.131 | 0.078 | – | 0.07 | 89% | 1460 ng/mL | 6740 ng/mL | 73% | 2680 ng/mL | 12600 ng/mL | – | – | – | – | –
C[C@H]1Cn2c(nnc2-c2cnccn2)CN1C(=O)c1cccc(C(F)(F)F)c1Cl | – | – | – | 0.302 | 0.302 | – | – | – | – | – | – | – | – | – | – | – | – | –
C[C@H]1Cn2c(nnc2-c2ccccn2)CN1C(=O)c1cccc(Cl)c1Cl | – | – | – | 0.51 | 0.449 | – | – | – | – | – | – | – | – | – | – | – | – | –
COc1ccnc(-c2nnc3n2C[C@H](C)N(C(=O)c2cccc(Cl)c2Cl)C3)c1 | > 10 µM | – | – | 0.174 | 0.07 | 260 µM (≈ 109 µg/mL) | – | – | – | – | – | – | – | 71% | 1080 ng/mL | 374 ng/mL | 3880 ng/mL | 78%
C[C@H]1Cn2c(nnc2-c2cc(F)ccn2)CN1C(=O)c1cccc(Cl)c1Cl | – | – | – | 0.254 | 0.09 | 350 µM (≈ 142 µg/mL) | – | – | – | – | – | – | – | – | – | – | – | –
